This note sets out measurements from patent publication US20100028312A1, “Stably transformed bone marrow-derived cells and uses thereof” (Caritas St. Elizabeth Medical Center of Boston Inc, priority 2005, published 2010).

Test [1] relates to EPC. In words: β-galactosidase activity in EPC transduced with type 2 AAV, with or without genistein. It is filed as cell-based, rats. As to the method:
(§1) EPC Culture and Expansion. Peripheral blood (about 1 ml) was obtained from the hearts of rats and mononuclear cells were isolated by density gradient centrifugation and cultured for 5 days. EPC were expanded ex vivo as described above.
(§2) Transduction of EPC. EPC cultures were infected with type 2 AAV-lacZ (also referred to herein as AAV-lacZ(+)) (control) vectors or AAV-IGF-1 vectors, prepared as described above, using approximately 3000 particles/cell. Some cultures were treated for about 1 hour with genistein, a specific inhibitor of cellular protein tyrosine kinases, (2-40 μM, preferably about 20 μM). Control vectors used in the genistein experiments also included AAV vector without lacZ, designated AAVlacZ(−).
AAV-IGF-1 mRNA expression in EPCs was determined by RT-PCR assay using primers specific for human IGF-1 sequences. The primer sequences used in these studies are as shown:
To determine whether efficiency of rAAV transduction of cultured EPC can be enhanced by inhibiting protein tyrosine kinases in these cells, some EPC cultures were pretreated with genestein prior to infection with rAAV, as described above. Referring to FIG. 5, in cultures infected with AAVlacZ(−) control vector, β-gal activity was negligible. In cultures infected with AAVlacZ(+) without or with pretreatment with 20 μM genistein, β-gal activity was 3.35 vs. 12.09, respectively. […]

The subject of test [2] is EPC. In words: RT-PCR assay of AAV-IGF-1 mRNA expression in transduced EPC, with or without genistein. It counts as cell-based, rats. On the procedure: as §1, §2
One week after infection, the cells were analyzed for β-galactosidase activity. AAV-IGF-1 mRNA expression in EPCs was determined by RT-PCR assay using primers specific for human IGF-1 sequences. The primer sequences used in these studies are as shown: […]

The test system of a further test is BM cells. The following applies: 100 ng intraperitoneal for 3 consecutive days; 2 months after BMT; versus control BMT.

Experimental for BM cells: To examine the effect of VEGF on BM cell mobilization, we injected the mice with 100 ng VEGF-C intaperitoneally for 3 days.
Freshly isolated BM cells or PB cells were subjected to FluoReporter lacZ Flow Cytometry Kit (Molecular Probes, OR) or stained with acetylated low-density lipoprotein (LDL) labeled with 1′-dioctadecyl1-1,3,3,3′-tetramethyl-indocarbocyanine; Di-I (Biomedical Technologies Inc, MA) as described previously [13]. Analysis was performed on a FACStar flow cytometer (Becton Dickinson) and Cell Quest Software counting 10,000 events per sample.
Accordingly, we treated recipient mice with VEGF protein and analyzed the kinetics of mobilization of BM cells by FACS analysis.
The means±S.E. from 9 independent experiments are presented. *, p<0.01, **, p<0.05 versus control BMT (FIG. 2A).

Consider `O=c1c(-c2ccc(O)cc2)coc2cc(O)cc(O)c12` [genistein], for which the “increase of lacZ activity by genistein” value in the test with EPC [1] (20 μM genistein versus no genistein, AAVlacZ(+)) is listed as “approximately four-fold”. In addition, in the test with EPC [1] (14 days after transduction, AAVlacZ(+)-infected EPC pretreated with 20 μM genistein), the β-gal activity is 12.09. For the same compound, the “AAV-mediated IGF-1 expression (mRNA, RT-PCR)” value in the test on EPC [2] (AAV-IGF-1 transduced EPC following treatment with genistein) is recorded as 206.1 units. The “increase of IGF-1 expression from AAV by genistein” value in the test with EPC [2] (genistein versus no genistein) was “about seven-fold”.
Take VEGF: the “β-gal expression in both PB and BM of recipient mice” value with BM cells is given as “significantly increased”.
